Patent US10905782B2, “Compositions for enhancing transport of molecules into cells” (priority 2003, dated 2021)

Assays:
[1] = test system: HeLa pLuc705 derived from HeLa S3, HeLa, NIH3T3, and Jurkat; assay: Cellular uptake by fluorescent microscopy in live cells; type: cell-based
Experimental: HeLa pLuc/705 (Kang, Cho et al. 1998) is a HeLa S3 cell line stably transfected with a plasmid carrying the luciferase coding sequence interrupted by a mutated human β-globin intron 2 (Gene Tools, Philomath, Oreg.). Other cell lines were obtained from ATCC (Manassas, Va.). The PMO's were 3′-labeled with fluorescein as described in Example 1. To avoid artifacts, all fluorescent images were taken from live cells, and no fixative agent or mounting media were used.
Cells were plated onto a 48-well plate. The next day the conditioned medium was removed and the test substances in fresh medium were added to the wells. After incubation, the cells were washed with phosphate-buffered saline (PBS) three times and visualized directly in the culture medium with a Nikon Diaphot 300 inverted microscope. Images were captured with an Olympus digital camera connected to a computer using MagnaFire software (Optronics, Goleta, Calif.).

trypsin = assay: Degradation of conjugate by trypsin; type: in vitro ADME; conditions: data not shown
[2] = test system: 705 splice site (luciferase gene interrupted by a human β-globin intron mutated at nucleotide 705); assay: pLuc/705 splice correction assay: luciferase production in HeLa pLuc/705 cells; type: cell-based; conditions: splice-correction assay monitored over time
Experimental: The data described below was obtained by targeting a β-globin splice correction sequence fused to luciferase.
Other cell lines were obtained from ATCC (Manassas, Va.). […] All assays were carried out with exponentially growing cells in culture media containing 10% fetal bovine serum (FBS) unless otherwise specified.
This assay measures the ability of steric blocking oligomers to enter cells and nuclei, block incorrect splicing of pre-mRNA, and thus cause expression of a reporter gene. It avoids the confusion of cytotoxicity with activity that can affect down-regulation assays, as cells must be able to carry out RNA processing and translation to produce a signal. Because oligomers must enter cells and cell nuclei to produce a signal in the assay, it is very useful for measuring uptake and effectiveness of delivery moieties.
The time course of the uptake of various transporter-PMO-fluorescein conjugates, as described above, in HeLa pLuc/705 cells was studied by fluorescence spectroscopy. Experiments were generally run in triplicate. According to the general procedure, culture medium containing the test substance at a specified concentration was added to HeLa pLuc/705 cells plated in a 48-well plate. After incubation, at each time point, the cells were washed with PBS three times, and the cell lysate was collected as described under “Fluorometry”, above. The amount of functional luciferase produced was determined by mixing 30 μl of cell lysate and 50 μl of Luciferase Assay Reagent (LAR) (Promega, Wis.) and measuring the light production using a Flx 800 microplate fluorescence/luminescence reader (Bio-tek, Vermont). The relative light units were normalized to μg of protein determined by the bicinchoninic acid (BCA) method, following the manufacturer's procedure (Pierce, Ill.).

HeLa pLuc705 cells = assay: Fluorometry: association (adsorption) of fluorescein-labeled conjugate with cells; type: cell-based, human
Experimental: HeLa pLuc/705 cells plated in a 48 well plate were treated with medium containing test substance. After incubation, cells were washed with PBS three times.
To measure the sum of membrane-bound and internalized fluorescence, cells were lysed directly in the wells by addition of 100 μl of cell lysis buffer (Promega, Madison, Wis.) to each well. Cell lysates were collected. The total fluorescence was determined by mixing 20 μl of cell lysate and 80 μl of 0.1 M Na2CO3 (pH 11) and measuring with an Flx 800 microplate fluorescence-luminescence reader with excitation at 485 nm and emission at 524 nm.
To measure internalized conjugate, the membrane-bound conjugate was removed by trypsinization, as follows. Trypsin (100 μl, 10%, Hyclone, Logan, Utah) was added to each well and incubated for 6 minutes at 37° C., followed by addition of 300 μl of culture media. The cells were spun down and washed with PBS, then lysed with 100 μl cell lysis buffer. The fluorescence of the cell lysate was measured as described above.

For “R9F2C-PMO: covalent conjugate of PMO 705 and transport peptide R9F2 via cysteine; fluorescein-labeled in uptake studies (chain RRRRRRRRRFFC; antisense cctcttacctcagttaca; cysteine linkage; PMO; fluorescein; synthetic transport peptide; synthetic oligomer)”, which pattern of fluorescence ([1]; HeLa S3 cells) is on record?
Its pattern of fluorescence is “less intense cytosolic diffuse fluorescence”.

What about the pattern of fluorescence ([1]; HeLa cells) of the same substance?
Its pattern of fluorescence is “mostly diffused fluorescence”.

And the “location of fluorescence in cells” value ([1]; HeLa, NIH3T3 or HeLa pLuc/705 cells, 20 minutes treatment, DHE nuclear stain)?
The value was “Diffuse green fluorescence was seen in both cytoplasm and nucleus”.

And the pattern of fluorescence ([1]; Jurkat cells)?
The pattern of fluorescence was “lowest level of fluorescence”.

What about the pattern of fluorescence ([1]; NIH3T3 cells) of the same substance?
The pattern of fluorescence was “very bright and diffused cytosolic and nuclear fluorescence”.

And the “cells in which fluorescence was observed” value ([1]; all four cell lines, live cells)?
Its value is 100%.

And the “sensitivity to degradation by trypsin” value (trypsin)?
The value was “sensitive to degradation by trypsin”.

And the “incubation time after which luciferase was produced” value [2]?
Its value is 120 min.

And the “fluorescence of cells incubated at 37° C. compared with 17° C.” value (HeLa pLuc705 cells; 0.1 to 5 μM, 70 minutes)?
The value was “similar”.

What about the “time at which cell fluorescence reached maximum intensity” value (HeLa pLuc705 cells; HeLa pLuc705 cells, 1 μM, 900 minute study period) of the same substance?
The value was 30 to 45 min.

And the “adsorption with increasing concentration” value (HeLa pLuc705 cells; increase between 0.1-1 μM, not between 1-5 μM)?
The value was “saturable”.
